Biological target: Isocitrate dehydrogenase [NADP] cytoplasmic (Homo sapiens, UniProt O75874, R132H)
Experiment: Inhibition of IDH1 R132H mutant (unknown origin) assessed as reduction in NADPH consumption using alpha-KG as substrate incubated for 5 mins followed by substrate addition and measured every 1 min

Sequence of Isocitrate dehydrogenase [NADP] cytoplasmic (O75874 2-414 R132H limits assumed): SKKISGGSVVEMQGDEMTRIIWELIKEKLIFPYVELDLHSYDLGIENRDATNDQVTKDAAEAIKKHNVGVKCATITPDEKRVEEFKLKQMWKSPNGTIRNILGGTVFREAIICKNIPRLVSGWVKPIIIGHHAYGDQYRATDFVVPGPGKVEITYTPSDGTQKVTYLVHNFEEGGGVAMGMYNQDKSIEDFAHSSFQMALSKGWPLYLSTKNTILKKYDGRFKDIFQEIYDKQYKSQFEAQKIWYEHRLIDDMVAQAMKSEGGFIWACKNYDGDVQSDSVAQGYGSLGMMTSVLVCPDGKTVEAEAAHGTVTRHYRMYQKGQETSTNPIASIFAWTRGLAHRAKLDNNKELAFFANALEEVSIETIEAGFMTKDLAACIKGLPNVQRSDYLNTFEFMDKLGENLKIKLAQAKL

Going from `Cc1ccccc1C(C(=O)NC1CCCCC1)N(C(=O)Cn1ccnc1C)c1cccc(F)c1` (stereo not given) to `C=C1CC[C@@H](O)[C@]23CC[C@](O)(O2)[C@@]24C(=O)N[C@@H](CC(C)C)[C@@H]2[C@H](C)C(C)=C[C@@H]4[C@@H]13`, the IC50 rises from 0.2 µM to over 50 µM. The first is the more potent here.

`CC(C)C[C@@H]1NC(=O)[C@]23[C@H]1[C@H](C)C(CO)=C[C@@H]2[C@@H]1[C@@]2(CCC[C@@]1(C)O)CC[C@]3(O)O2` and `CC1=C[C@@H]2/C=C(\C)CC[C@@H](O)C(=O)[C@H]3[C@H](C(=O)[C@]24C(=O)N[C@@H](CC(C)C)[C@@H]4[C@@H]1C)[C@@H]1O[C@H]3c2c(O)c(O)c(O)c(C)c21` cannot be ordered by IC50: over 50 µM for the first, over 50 µM for the second.

`CC1=C[C@@H]2/C=C(\C)CC[C@@H](O)C(=O)[C@H]3[C@H](C(=O)[C@]24C(=O)N[C@@H](CC(C)C)[C@@H]4[C@@H]1C)[C@@H]1O[C@H]3c2c(C)c(O)c(O)c(O)c21` and `CC1=C[C@@H]2/C=C(\C)CC[C@@H](O)C(=O)[C@H]3[C@H](C(=O)[C@]24C(=O)N[C@@H](CC(C)C)[C@@H]4[C@@H]1C)[C@H]1O[C@@H]3c2c(O)c(O)c(O)c(C)c21` cannot be ordered by IC50: over 50 µM for the first, over 50 µM for the second.

`COc1c(O)c(C)c2c(c1O)[C@H]1O[C@@H]2[C@H]2C(=O)[C@@]34C(=O)N[C@@H](CC(C)C)[C@@H]3[C@H](C)C(C)=C[C@@H]4/C=C(\C)CC[C@@H](O)C(=O)[C@@H]21` and `COc1c(O)c(C)c2c(c1O)[C@@H]1O[C@H]2[C@H]2C(=O)[C@H](O)CC/C(C)=C/[C@H]3C=C(C)[C@@H](C)[C@H]4[C@H](CC(C)C)NC(=O)[C@]43C(=O)[C@@H]21` are within 1.5-fold of each other in IC50: 13.3 µM for the first, 17.3 µM for the second.

First: COc1c(O)c(C)c2c(c1O)[C@@H]1O[C@H]2[C@H]2C(=O)[C@@]34C(=O)N[C@@H](CC(C)C)[C@@H]3[C@H](C)C(C)=C[C@@H]4/C=C(\C)CC[C@@H](O)C(=O)[C@@H]21
Second: COc1c(O)c(C)c2c(c1O)[C@H]1O[C@@H]2[C@H]2C(=O)[C@H](O)CC/C(C)=C/[C@H]3C=C(C)[C@@H](C)[C@H]4[C@H](CC(C)C)NC(=O)[C@]43C(=O)[C@@H]21
The IC50 of the first is 3.7-fold higher: 43.6 µM for the first, 11.7 µM for the second.

Reference: ChEMBL document CHEMBL4334517, “Flavipesines A and B and Asperchalasines E-H: Cytochalasans and Merocytochalasans from Aspergillus flavipes” (J Nat Prod, 2019)
